Experimental data from ChEMBL document CHEMBL3352415, “Synthesis and biological evaluation of novel thiadiazole amides as potent Cdc25B and PTP1B inhibitors” (Bioorg Med Chem Lett, 2014).

How the values were obtained:
[1] = molecular target: T1, M-phase inducer phosphatase 2 (Homo sapiens) (UniProt P30305); assay: Inhibition of Cdc25B (unknown origin) at 5 ug/ml
T1 sequence (whole entry): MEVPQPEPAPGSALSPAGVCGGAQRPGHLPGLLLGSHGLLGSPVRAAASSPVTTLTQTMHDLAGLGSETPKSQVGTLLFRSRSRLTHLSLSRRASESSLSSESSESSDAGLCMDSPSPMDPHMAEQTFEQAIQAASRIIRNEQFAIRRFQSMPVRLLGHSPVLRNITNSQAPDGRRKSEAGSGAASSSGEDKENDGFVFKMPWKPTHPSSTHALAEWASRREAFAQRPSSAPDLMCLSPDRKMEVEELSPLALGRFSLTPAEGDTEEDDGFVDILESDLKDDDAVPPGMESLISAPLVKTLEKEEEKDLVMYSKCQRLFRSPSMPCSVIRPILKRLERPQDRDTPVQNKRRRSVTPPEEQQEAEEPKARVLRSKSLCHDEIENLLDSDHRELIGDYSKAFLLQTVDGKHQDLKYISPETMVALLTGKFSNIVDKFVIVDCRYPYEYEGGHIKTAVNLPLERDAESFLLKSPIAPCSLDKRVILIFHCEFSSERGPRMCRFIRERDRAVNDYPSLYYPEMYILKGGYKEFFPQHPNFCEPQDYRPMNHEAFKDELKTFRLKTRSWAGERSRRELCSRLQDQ

[2] = molecular target: T2, Tyrosine-protein phosphatase non-receptor type 1 (Homo sapiens) (UniProt P18031); assay: Inhibition of PTP1B (unknown origin) at 5 ug/ml
T2 sequence (whole entry): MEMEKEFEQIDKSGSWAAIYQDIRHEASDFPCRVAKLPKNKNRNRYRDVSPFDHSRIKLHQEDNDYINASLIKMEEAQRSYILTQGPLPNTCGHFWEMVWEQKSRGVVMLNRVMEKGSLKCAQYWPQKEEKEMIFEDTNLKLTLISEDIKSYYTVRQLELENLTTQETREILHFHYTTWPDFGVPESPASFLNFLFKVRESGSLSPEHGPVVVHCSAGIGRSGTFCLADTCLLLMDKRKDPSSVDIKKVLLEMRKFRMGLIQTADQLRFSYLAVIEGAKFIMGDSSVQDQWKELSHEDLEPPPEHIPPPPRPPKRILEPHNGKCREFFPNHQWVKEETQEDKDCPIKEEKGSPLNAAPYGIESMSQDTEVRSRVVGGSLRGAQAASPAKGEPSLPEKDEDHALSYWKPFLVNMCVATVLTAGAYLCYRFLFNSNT

[3] = molecular target: T3, Tyrosine-protein phosphatase non-receptor type 2 (Homo sapiens, UniProt P17706); assay: Inhibition of TCPTP (unknown origin)
T3 sequence (P17706 whole entry): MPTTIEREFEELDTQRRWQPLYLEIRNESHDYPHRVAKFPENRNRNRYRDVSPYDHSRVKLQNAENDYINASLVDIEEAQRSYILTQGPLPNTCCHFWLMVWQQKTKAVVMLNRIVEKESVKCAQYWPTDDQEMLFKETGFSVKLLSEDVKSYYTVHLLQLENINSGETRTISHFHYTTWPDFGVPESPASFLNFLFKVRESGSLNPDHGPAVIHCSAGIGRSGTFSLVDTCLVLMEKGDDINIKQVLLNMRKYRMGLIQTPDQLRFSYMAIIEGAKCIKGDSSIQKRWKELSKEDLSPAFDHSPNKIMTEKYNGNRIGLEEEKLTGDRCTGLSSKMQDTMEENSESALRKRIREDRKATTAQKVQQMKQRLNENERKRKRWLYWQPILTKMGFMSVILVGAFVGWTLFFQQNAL

[4] = molecular target: Tyrosine-protein phosphatase non-receptor type 6 (Homo sapiens, UniProt P29350); assay: Inhibition of SHP1 (unknown origin)
[5] = molecular target: T4, Tyrosine-protein phosphatase non-receptor type 11 (Homo sapiens, UniProt Q06124); assay: Inhibition of SHP2 (unknown origin)
T4 sequence (Q06124 whole entry): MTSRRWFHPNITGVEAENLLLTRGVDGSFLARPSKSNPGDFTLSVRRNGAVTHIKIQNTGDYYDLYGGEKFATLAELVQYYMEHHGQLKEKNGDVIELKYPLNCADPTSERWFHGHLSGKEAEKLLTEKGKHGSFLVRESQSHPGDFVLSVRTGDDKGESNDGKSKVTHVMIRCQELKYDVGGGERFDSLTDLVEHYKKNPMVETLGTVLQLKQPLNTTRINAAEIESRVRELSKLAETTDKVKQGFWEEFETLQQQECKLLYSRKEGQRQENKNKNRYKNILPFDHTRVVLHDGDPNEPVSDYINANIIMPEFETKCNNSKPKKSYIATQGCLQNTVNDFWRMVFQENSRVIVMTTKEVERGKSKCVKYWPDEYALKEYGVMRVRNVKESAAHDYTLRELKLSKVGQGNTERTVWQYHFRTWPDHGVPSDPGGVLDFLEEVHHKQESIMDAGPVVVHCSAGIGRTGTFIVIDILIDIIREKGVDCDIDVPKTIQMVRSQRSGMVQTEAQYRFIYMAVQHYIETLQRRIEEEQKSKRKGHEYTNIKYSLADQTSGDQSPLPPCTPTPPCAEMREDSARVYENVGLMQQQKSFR

[6] = molecular target: Receptor-type tyrosine-protein phosphatase F (Homo sapiens, UniProt P10586); assay: Inhibition of LAR (unknown origin)
[7] = molecular target: T5, Tyrosine-protein phosphatase non-receptor type 1 (Homo sapiens, UniProt P18031); assay: Inhibition of PTP1B (unknown origin)
T5 sequence (P18031 whole entry): T2 sequence (whole entry)

[8] = molecular target: T6, M-phase inducer phosphatase 2 (Homo sapiens, UniProt P30305); assay: Inhibition of Cdc25B (unknown origin)
T6 sequence (P30305 whole entry): T1 sequence (whole entry)

Receptor-type tyrosine-protein phosphatase F, sequence (P10586 whole entry): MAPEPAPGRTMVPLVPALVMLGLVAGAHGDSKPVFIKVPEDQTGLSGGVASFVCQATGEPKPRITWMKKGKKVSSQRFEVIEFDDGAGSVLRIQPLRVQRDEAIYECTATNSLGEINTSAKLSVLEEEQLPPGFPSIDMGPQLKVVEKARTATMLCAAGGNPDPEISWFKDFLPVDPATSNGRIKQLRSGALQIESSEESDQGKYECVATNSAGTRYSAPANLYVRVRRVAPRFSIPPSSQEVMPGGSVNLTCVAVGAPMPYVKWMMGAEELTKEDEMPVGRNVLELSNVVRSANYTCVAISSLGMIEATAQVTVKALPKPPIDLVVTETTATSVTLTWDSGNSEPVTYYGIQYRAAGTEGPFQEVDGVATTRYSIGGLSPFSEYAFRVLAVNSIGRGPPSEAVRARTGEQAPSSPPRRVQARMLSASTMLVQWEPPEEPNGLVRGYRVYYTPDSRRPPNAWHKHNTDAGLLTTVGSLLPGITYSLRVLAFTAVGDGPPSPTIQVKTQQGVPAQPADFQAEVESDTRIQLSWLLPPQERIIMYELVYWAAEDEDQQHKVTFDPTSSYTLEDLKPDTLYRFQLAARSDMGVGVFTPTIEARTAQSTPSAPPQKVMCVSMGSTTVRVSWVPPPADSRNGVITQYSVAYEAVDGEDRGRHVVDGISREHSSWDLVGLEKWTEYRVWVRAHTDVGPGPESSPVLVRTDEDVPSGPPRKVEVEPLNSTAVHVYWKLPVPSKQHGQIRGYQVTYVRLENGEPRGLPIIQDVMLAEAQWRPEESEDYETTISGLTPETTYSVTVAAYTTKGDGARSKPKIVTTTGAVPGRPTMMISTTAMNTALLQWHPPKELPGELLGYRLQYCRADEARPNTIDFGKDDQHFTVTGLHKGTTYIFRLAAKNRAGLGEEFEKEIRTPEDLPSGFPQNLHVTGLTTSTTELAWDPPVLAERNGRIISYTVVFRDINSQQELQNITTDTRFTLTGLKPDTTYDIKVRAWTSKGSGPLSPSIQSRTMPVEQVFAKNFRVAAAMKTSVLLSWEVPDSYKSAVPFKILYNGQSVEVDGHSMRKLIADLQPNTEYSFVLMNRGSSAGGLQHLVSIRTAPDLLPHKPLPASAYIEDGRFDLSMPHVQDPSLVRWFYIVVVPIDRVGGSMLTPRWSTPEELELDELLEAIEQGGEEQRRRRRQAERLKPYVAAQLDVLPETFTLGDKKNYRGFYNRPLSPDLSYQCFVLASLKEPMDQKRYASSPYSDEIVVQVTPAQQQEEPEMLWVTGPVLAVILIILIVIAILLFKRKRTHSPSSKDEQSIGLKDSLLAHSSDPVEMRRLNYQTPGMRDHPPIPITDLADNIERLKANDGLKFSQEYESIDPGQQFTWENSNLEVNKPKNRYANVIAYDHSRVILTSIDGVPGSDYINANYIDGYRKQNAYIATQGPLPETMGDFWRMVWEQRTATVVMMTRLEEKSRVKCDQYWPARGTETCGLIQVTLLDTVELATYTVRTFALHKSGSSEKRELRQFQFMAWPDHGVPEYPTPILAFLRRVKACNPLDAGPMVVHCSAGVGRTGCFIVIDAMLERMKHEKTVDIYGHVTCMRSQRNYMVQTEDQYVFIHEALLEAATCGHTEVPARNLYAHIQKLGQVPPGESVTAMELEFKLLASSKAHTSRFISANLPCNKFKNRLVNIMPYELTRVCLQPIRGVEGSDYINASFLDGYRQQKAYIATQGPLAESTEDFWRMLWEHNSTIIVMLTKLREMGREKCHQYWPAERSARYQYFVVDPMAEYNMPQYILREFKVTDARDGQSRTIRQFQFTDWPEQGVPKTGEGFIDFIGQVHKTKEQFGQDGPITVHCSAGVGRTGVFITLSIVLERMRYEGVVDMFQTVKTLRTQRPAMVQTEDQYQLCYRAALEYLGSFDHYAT
Tyrosine-protein phosphatase non-receptor type 6, sequence (P29350 whole entry): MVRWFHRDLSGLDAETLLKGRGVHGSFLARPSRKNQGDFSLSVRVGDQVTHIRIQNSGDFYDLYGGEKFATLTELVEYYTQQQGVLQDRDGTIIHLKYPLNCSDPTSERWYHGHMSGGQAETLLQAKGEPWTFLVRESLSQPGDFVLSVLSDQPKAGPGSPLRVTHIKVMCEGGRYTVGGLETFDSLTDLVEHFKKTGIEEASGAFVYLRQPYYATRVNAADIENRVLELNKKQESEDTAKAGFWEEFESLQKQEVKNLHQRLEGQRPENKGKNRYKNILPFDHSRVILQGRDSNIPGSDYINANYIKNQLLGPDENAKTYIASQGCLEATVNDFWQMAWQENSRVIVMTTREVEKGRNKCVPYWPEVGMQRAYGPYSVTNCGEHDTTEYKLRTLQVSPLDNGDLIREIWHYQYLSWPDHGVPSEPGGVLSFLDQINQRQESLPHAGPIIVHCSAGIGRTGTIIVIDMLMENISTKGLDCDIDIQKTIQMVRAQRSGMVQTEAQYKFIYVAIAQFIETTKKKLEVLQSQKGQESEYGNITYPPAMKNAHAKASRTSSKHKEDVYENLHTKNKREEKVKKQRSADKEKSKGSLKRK

Row | inhibition [1] [%] | inhibition [2] [%] | IC50 [3] | IC50 [4] | IC50 [5] | IC50 [6] | IC50 [7] [µM] | IC50 [8] [µM] | Compound
1 | 31.7 | 77.1 | Not Active | Not Active | Not Active | Not Active | 20 |  | O=C(Nc1nnc(-c2ccc(Oc3ccc([N+](=O)[O-])cc3)cc2)s1)c1ccc(F)cc1
2 | 81.7 | 37.1 | Not Active | Not Active | Not Active | Not Active |  | 10.5 | O=C(Nc1nnc(-c2ccc(Oc3ccc([N+](=O)[O-])cc3)cc2)s1)c1cccc(F)c1
3 | 13 | 85 | Not Active | Not Active | Not Active | Not Active | 9.17 |  | O=C(Nc1nnc(-c2ccc(Oc3ccc([N+](=O)[O-])cc3)cc2)s1)c1ccccc1[N+](=O)[O-]
4 | 2.52 | 32.1 | Not Active | Not Active | Not Active | Not Active |  |  | COc1cccc(C(=O)Nc2nnc(-c3ccc(Oc4ccc([N+](=O)[O-])cc4)cc3)s2)c1
5 | 97 | 82.4 | Not Active | Not Active | Not Active | Not Active | 10 | 8.01 | O=C(Nc1nnc(-c2ccc(Oc3ccc([N+](=O)[O-])cc3)cc2)s1)c1cccnc1
6 | 24.2 | 94.6 | Not Active | Not Active | Not Active | Not Active | 1.83 |  | O=C(Nc1nnc(-c2ccc(Oc3ccc([N+](=O)[O-])cc3)cc2)s1)c1cccc([N+](=O)[O-])c1
7 | 25.8 | 68.4 | Not Active | Not Active | Not Active | Not Active | 19.1 |  | Cc1ccc(C(=O)Nc2nnc(-c3ccc(Oc4ccc([N+](=O)[O-])cc4)cc3)s2)cc1
8 | 37 | 80.7 | Not Active | Not Active | Not Active | Not Active | 6.71 |  | O=C(Nc1nnc(-c2ccc(Oc3ccc([N+](=O)[O-])cc3[N+](=O)[O-])cc2)s1)c1cccc(Cl)c1
9 | 46.4 | 63 | Not Active | Not Active | Not Active | Not Active | 13.8 |  | O=C(Nc1nnc(-c2ccc(Oc3ccc([N+](=O)[O-])cc3)cc2)s1)c1ccccc1Cl

Continued, compound first:

Row | Compound | inhibition [1] [%] | inhibition [2] [%] | IC50 [3] | IC50 [4] | IC50 [5] | IC50 [6] | IC50 [7] [µM] | IC50 [8] [µM]
10 | O=C(Cc1cccc2ccccc12)Nc1nnc(-c2ccc(Oc3ccc([N+](=O)[O-])cc3)cc2)s1 | 90.4 | 74.1 | Not Active | Not Active | Not Active | Not Active | 7.52 | 5.16
11 | COc1cccc(C(=O)Nc2nnc(-c3ccc(Oc4ccc([N+](=O)[O-])cc4[N+](=O)[O-])cc3)s2)c1 | 92.6 | 86.3 | Not Active | Not Active | Not Active | Not Active | 10.8 | 8.33
12 | SODIUM ORTHOVANAD |  |  |  | 15.9 µg/mL | 24.1 µg/mL |  |  | 
13 | COc1ccc(C(=O)Nc2nnc(-c3ccc(Oc4ccc([N+](=O)[O-])cc4[N+](=O)[O-])cc3)s2)cc1 | 28.9 | 92.9 | Not Active | Not Active | Not Active | Not Active | 7.6 | 
14 | Cc1ccc(C(=O)Nc2nnc(-c3ccc(Oc4ccc([N+](=O)[O-])cc4[N+](=O)[O-])cc3)s2)cc1 | 94.5 | 85.3 | Not Active | Not Active | Not Active | Not Active | 10.8 | 2.47
15 | Cc1ccccc1C(=O)Nc1nnc(-c2ccc(Oc3ccc([N+](=O)[O-])cc3)cc2)s1 | 94 | 60.4 | Not Active | Not Active | Not Active | Not Active | 8.05 | 9.41
16 | O=C(Cc1ccccc1)Nc1nnc(-c2ccc(Oc3ccc([N+](=O)[O-])cc3)cc2)s1 | 43.6 | 54.9 | Not Active | Not Active | Not Active | Not Active | 12.6 | 
17 | COc1cc(C(=O)Nc2nnc(-c3ccc(Oc4ccc([N+](=O)[O-])cc4[N+](=O)[O-])cc3)s2)cc(OC)c1OC | 84.5 | 84.2 | Not Active | Not Active | Not Active | Not Active | 5.24 | 3.99
18 | O=C(Nc1nnc(-c2ccc(Oc3ccc([N+](=O)[O-])cc3[N+](=O)[O-])cc2)s1)c1ccc(Cl)cc1 | 90.2 | 42.3 | Not Active | Not Active | Not Active | Not Active |  | 4.44
19 | COc1ccc(C(=O)Nc2nnc(-c3ccc(Oc4ccc([N+](=O)[O-])cc4)cc3)s2)cc1 | 88.8 | 72.6 | Not Active | Not Active | Not Active | Not Active | 9.08 | 2.77
20 | COc1ccccc1C(=O)Nc1nnc(-c2ccc(Oc3ccc([N+](=O)[O-])cc3)cc2)s1 | 26.1 | 84.8 | Not Active | Not Active | Not Active | Not Active | 13.1 | 
21 | COc1ccccc1C(=O)Nc1nnc(-c2ccc(Oc3ccc([N+](=O)[O-])cc3[N+](=O)[O-])cc2)s1 | 17.5 | 91.3 | Not Active | Not Active | Not Active | Not Active | 3.81 | 
